Laboratory results as given in the NIST ThermoML archive (doi:10.1016/j.fluid.2014.09.020).

Assay: mn = molality of the nth substance listed, in mol/kg
Conditions: 101 kPa, Liquid; for viscosity: Capillary tube (Ostwald / Ubbelohde) method; for electrical conductivity: Direct current cell with electrodes; for mass density: Vibrating tube method

CC[N+]1(C)CCCCC1.[Br-] [N-ethyl-N-methylpiperidinium bromide] + O
Conditions	electrical conductivity [S/m]	mass density [kg/m3]	viscosity [mPa·s]
293.15 K, m1 = 0.2501	1.67	1009.34	1.412
293.15 K, m1 = 0.5	2.69	1019.49	1.432
293.15 K, m1 = 0.75	3.46	1029.24	1.492
293.15 K, m1 = 0.9992	4.01	1038.65	1.587
293.15 K, m1 = 1.25	4.41	1047.4	1.707
293.15 K, m1 = 1.5	4.68	1055.5	1.849
293.15 K, m1 = 1.75	4.84	1063.82	2.021
293.15 K, m1 = 1.998	4.94	1071.67	2.208
293.15 K, m1 = 2.2	5.03	1077.12	2.361
293.15 K, m1 = 2.4	5.12	1082.45	2.521
298.15 K, m1 = 0.2501	1.94	1007.59	1.254
298.15 K, m1 = 0.5	2.92	1017.73	1.274
298.15 K, m1 = 0.75	3.72	1027.52	1.325
298.15 K, m1 = 0.9992	4.36	1036.99	1.401
298.15 K, m1 = 1.25	4.82	1045.62	1.516
298.15 K, m1 = 1.5	5.14	1053.61	1.655
298.15 K, m1 = 1.75	5.42	1061.89	1.787
298.15 K, m1 = 1.998	5.61	1069.59	1.932
298.15 K, m1 = 2.2	5.68	1074.97	2.069
298.15 K, m1 = 2.4	5.73	1080.2	2.2
303.15 K, m1 = 0.2501	2.02	1005.68	1.038
303.15 K, m1 = 0.5	3.08	1015.67	1.091
303.15 K, m1 = 0.75	3.95	1025.8	1.161
303.15 K, m1 = 0.9992	4.65	1034.64	1.248
303.15 K, m1 = 1.25	5.15	1043.44	1.349
303.15 K, m1 = 1.5	5.5	1051.59	1.46
303.15 K, m1 = 1.75	5.81	1059.87	1.583
303.15 K, m1 = 1.998	6.02	1067.36	1.712
303.15 K, m1 = 2.2	6.09	1072.73	1.82
303.15 K, m1 = 2.4	6.15	1077.82	1.931
308.15 K, m1 = 0.2501	2.24	1003.67	0.8791
308.15 K, m1 = 0.5	3.29	1013.78	0.9294
308.15 K, m1 = 0.75	4.2	1023.78	0.9953
308.15 K, m1 = 0.9992	4.98	1032.63	1.074
308.15 K, m1 = 1.25	5.54	1041.4	1.163
308.15 K, m1 = 1.5	5.93	1049.3	1.26
308.15 K, m1 = 1.75	6.34	1057.7	1.363
308.15 K, m1 = 1.998	6.61	1064.48	1.469
308.15 K, m1 = 2.2	6.66	1070.15	1.554
308.15 K, m1 = 2.4	6.69	1075.12	1.639
